# Results published in patent US20220265845A1, “AMINOTHIOLESTER COMPOUNDS AND USES THEREOF” (ADVANCED BIODESIGN, priority 2019, published 2022).
# Columns and labels:
# Assay type in all cases: biochemical
# [1] = biological target: T1, Human recombinant ALDH1A1 (Homo sapiens, UniProt P00352); assay: Enzymatic assay with human recombinant ALDH (NADH fluorescence), IC50; conditions: substrate Hexanal, NAD+, 37° C.
# T1 construct: purchased Creative BioMart, NY, USA
# T1 sequence (P00352 1-501): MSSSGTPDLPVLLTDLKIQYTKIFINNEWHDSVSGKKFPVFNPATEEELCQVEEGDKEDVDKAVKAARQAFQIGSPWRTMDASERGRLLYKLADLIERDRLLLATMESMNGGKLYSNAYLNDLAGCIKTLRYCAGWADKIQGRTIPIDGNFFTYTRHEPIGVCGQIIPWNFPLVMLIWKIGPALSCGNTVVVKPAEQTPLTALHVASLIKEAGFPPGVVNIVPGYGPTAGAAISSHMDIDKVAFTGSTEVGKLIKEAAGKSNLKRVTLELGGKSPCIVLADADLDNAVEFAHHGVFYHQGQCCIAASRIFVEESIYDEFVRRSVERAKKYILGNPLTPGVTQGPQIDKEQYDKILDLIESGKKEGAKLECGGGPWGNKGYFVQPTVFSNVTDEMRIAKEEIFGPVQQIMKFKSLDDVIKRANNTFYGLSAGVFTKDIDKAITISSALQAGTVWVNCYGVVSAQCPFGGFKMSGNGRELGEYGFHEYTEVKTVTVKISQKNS
# Method: (§1) Human recombinant ALDH1A1, ALDH1 A2, ALDH1A3, ALDH2 (Creative BioMart, NY, USA) were prepared at 1 mg/mL. The enzymatic reactions were performed using saturating concentrations of substrate. To test the enzymatic activity of the enzymes, 10 μL of enzyme was added into a reaction buffer containing 50 mM HEPES pH 7.2, 30 mM MgCl2, plus 20 mM NAD^+ cofactor and 2 mM Hexanal (Sigma-Aldrich, St. Louis, Mo., USA) in the presence or absence of the different tested compounds. Internal standards were prepared with Nicotinamide adenine dinucleotide reduce form (NADH, 500 μM, Sigma-Aldrich) in Reaction Buffer (50 mM HEPES pH 7.2, 30 mM MgCl2).
# (§2) Time-dependent inhibition assays were performed for 0-2-5-10-15-20-30-45-60 min at 37° C. in 1 mL-quartz cuvette. The formation of NADH was monitored, reading samples at excitation wavelength=340 nm/emission wavelength=460 nm (fluorescence) for at least 600 sec using Cary Eclipse Varian fluorimeter.
# (§3) Negative control consisted in the same reactions except that enzyme was not added (enzyme blank). To determine the slope for enzyme blank and calculate product concentration (Unit of fluorescence) the following formulae was used: […]
# (§4) where Cst is the standard NADH concentration, Fst is the standard fluorescence and dF/dt is the slope of the time dependent fluorescence (S. Sotobodowska et al, 2012). The specific activity of the enzymes (μmol/min·mg-U/mg) in the absence of presence of inhibitors was calculated as follows: […]
# [2] = biological target: T2, Human recombinant ALDH1A2 (Homo sapiens, UniProt O94788); assay: as above; conditions: substrate Hexanal, NAD+, 37° C.
# T2 construct: purchased Creative BioMart, NY, USA
# T2 sequence (O94788 1-518): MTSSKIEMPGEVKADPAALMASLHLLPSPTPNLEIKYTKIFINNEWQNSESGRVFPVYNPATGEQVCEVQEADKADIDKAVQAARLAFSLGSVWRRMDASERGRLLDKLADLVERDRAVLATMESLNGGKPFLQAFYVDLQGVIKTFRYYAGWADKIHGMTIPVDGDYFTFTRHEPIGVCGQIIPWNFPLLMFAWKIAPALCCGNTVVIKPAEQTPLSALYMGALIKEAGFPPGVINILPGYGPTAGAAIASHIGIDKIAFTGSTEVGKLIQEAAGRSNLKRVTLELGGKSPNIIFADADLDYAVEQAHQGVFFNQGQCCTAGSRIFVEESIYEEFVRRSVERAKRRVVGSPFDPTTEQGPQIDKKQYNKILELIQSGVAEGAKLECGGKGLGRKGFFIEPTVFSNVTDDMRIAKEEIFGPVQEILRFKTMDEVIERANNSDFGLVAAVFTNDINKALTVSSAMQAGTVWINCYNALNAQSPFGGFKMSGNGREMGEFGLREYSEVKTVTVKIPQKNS
# Method: as §1, §2, §3, §4
# [3] = biological target: T3, Human recombinant ALDH1A3 (Homo sapiens, UniProt P47895); assay: as above; conditions: substrate Hexanal, NAD+, 37° C.
# T3 construct: purchased Creative BioMart, NY, USA
# T3 sequence (P47895 1-512): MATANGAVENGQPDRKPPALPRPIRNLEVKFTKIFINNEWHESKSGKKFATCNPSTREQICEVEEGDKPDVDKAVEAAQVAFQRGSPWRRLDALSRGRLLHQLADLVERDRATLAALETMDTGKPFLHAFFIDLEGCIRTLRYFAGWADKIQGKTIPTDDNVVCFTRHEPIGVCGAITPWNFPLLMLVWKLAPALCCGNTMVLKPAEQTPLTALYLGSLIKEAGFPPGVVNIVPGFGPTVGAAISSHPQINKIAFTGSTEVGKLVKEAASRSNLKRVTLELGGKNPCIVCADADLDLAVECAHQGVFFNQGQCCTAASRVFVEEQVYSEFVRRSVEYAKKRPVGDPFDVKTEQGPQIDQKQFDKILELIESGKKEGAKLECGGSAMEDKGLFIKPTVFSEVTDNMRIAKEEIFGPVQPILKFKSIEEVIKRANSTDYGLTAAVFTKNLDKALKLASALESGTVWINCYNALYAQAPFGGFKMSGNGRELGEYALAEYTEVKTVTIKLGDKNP
# Method: as §1, §2, §3, §4
# [4] = biological target: T4, Human recombinant ALDH3A1 (Homo sapiens, UniProt P30838); assay: Enzymatic assay with human recombinant ALDH3A1 (NADP+, 4-NBA), IC50; conditions: substrate 4-Nitrobenzaldehyde, 37° C.
# T4 sequence (P30838 1-453): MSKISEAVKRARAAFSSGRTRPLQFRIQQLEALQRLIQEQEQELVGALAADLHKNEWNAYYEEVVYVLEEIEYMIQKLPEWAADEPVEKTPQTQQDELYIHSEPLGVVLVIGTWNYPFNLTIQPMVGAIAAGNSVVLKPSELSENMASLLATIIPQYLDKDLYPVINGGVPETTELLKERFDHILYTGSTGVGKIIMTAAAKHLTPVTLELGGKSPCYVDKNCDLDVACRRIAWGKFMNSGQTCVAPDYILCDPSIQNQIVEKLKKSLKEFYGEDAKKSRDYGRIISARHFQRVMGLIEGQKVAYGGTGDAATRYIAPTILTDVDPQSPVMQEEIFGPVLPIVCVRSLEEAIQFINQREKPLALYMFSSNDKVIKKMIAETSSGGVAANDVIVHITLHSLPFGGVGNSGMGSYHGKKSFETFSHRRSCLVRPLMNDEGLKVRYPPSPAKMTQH
# Method: For ALDH3A1 (1 mg/mL), 10 μL of enzyme was added into a reaction buffer containing 50 mM Tris, 5 mM DTT, pH 8, plus 40 mM Nicotinamide adenine dinucleotide phosphate (oxidized form, NADP^+) and 4-Nitrobenzaldehyde (4-NBA) (Sigma-.Aldrich). Internal standards were prepared with Nicotinamide adenine dinucleotide phosphate reduced form (NADPH, 5 μM, Sigma-Aldrich) in Reaction Buffer (50 mM Tris, 5 mM DTT, pH 8).
# as §2, §3, §4
Structure (SMILES),IC50 [1] [µM],IC50 [2] [µM],IC50 [3] [µM],IC50 [4] [µM]
"CSC(=O)C#CC(C)(C)N(C)C [DIMATE, S-methyl 4-(dimethylamino)-4-methylpent-2-ynethioate, reference compound]",37 ± 5,18 ± 4,20 ± 2,303 ± 46
"CSC(=O)C#CC(C)(C)N(C)CCOCc1ccccc1 [Example 3, S-methyl 4-[2-benzyloxyethyl(methyl)amino]-4-methyl-pent-2-ynethioate]",3.8 ± 1.1,0.568 ± 0.09,3.4 ± 0.1,242 ± 11
"CSC(=O)C#CC(C)(C)N(C)CCOCc1ccc(C)c(C)c1 [Example 5, S-methyl 4-[2-[(3,4-dimethylphenyl)methoxy]ethyl-methyl-amino]-4-methyl-pent-2-ynethioate]",4.3 ± 0.4,1.3 ± 0.2,4.8 ± 0.1,143 ± 2
